Where two headings read alike, the source gives them in different places. Some results are limits rather than exact numbers.

This note sets out measurements from US11149031B2, “Substituted N-(3-fluoropropyl)-pyrrolidine compounds, processes for their preparation and therapeutic uses thereof” (SANOFI, priority 2016, dated 2021).

Assay [1] addresses His6-ERα298-554 WT (ERα ligand-binding domain) (Homo sapiens (Human), UniProt P03372). Description: Test A: biochemical antagonist activity, LanthaScreen TR-FRET ERα coactivator assay, WT. The settings on record: read-out: Antagonism WT IC50. Summed up:
(§1)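 His6-ERα LBD (0.5 nM) with 0.5 nM Tb-anti-His6 antibody, 250 nM PGC1a peptide and 3 nM (or 10 nM) estradiol in 100 mM potassium phosphate pH 7.4 with 5 mM DTT, incubated overnight at room temperature with compound.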
On the technique in general: TR-FRET usually uses a lanthanide donor and a delayed reading to cut background.

Another assay deals with ERα in MCF7 cells (Homo sapiens (Human), UniProt P03372). As to the kind of experiment: Test C: estrogen receptor degradation activity, ERα in cell western assay in MCF7 cells. The settings on record: for DC50: 4 hours post compound addition, ERα in cell western, read-out: Degradation IC50; for % Degradation at 3 μM: 4 hours, relative to fulvestrant. The class given is cell-based. The procedure, abridged: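 Steps: seed MCF7 in phenol red-free medium containing 5% charcoal-dextran stripped FBS; next day add compound, final 3–0.000018 μM; after 4 h fix with 5% formalin plus 0.1% Triton; stain ERα overnight, then secondary at 37 °C for 60 min with Syto-64 at 2 μM; scan green and red intensities.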
Chain of ERα in MCF7 cells (P03372 whole entry): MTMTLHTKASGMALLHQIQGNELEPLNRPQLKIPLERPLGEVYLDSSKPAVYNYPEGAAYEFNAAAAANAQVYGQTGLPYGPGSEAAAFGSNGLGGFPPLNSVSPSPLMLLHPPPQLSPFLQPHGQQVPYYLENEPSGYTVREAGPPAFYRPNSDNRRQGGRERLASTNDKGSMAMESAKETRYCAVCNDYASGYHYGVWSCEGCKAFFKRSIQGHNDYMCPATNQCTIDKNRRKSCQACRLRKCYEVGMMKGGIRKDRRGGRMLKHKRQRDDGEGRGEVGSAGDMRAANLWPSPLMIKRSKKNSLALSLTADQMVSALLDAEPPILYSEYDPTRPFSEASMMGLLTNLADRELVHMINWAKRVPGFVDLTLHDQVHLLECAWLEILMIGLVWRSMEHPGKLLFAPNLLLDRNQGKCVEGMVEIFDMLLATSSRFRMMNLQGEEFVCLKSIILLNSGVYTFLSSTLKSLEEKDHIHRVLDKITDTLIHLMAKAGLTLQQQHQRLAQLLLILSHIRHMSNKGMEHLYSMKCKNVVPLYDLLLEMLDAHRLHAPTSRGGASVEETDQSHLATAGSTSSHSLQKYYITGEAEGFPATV

For assay [2], the target named is His6-ERα298-554 D538G mutant (ERα ligand-binding domain) (Homo sapiens (Human), UniProt P03372, D538G). Description: Test A: biochemical antagonist activity, LanthaScreen TR-FRET ERα coactivator assay, D538G mutant. Conditions: read-out: Antagonism D538G IC50. Summed up:
as §1

The target in assay [3] is His6-ERα298-554 Y537S mutant (ERα ligand-binding domain) (Homo sapiens (Human), UniProt P03372, Y537S). Description: Test A: biochemical antagonist activity, LanthaScreen TR-FRET ERα coactivator assay, Y537S mutant. Conditions: read-out: Antagonism Y537S IC50. Summed up:
as §1

Assay [4] has as its system MCF7 cells expressing mutant estrogen receptor Asp 538 Gly. As to the kind of experiment: Test B: cell proliferation/viability assay (CellTiter-Glo) on MCF7 Asp 538 Gly mutant. The class given is cell-based. Conditions: Homo sapiens, MCF7, 168 h, MCF7 cells expressing ER Asp 538 Gly mutant, 7 days of compound exposure, read-out: proliferation MCF7 D538G IC50. Summed up: (§2)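 Compound exposure lasted 7 days (3-0.000001 μM final, 9 points) in phenol red-free MEM with 5% charcoal dextran-stripped FBS. The mutant lines grew without estradiol. Luminescent signal, minus medium-only background, was expressed as percent of untreated cells.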

Assay [5] deals with MCF7 cells (breast tumor cells) WT. Description: Test B: cell proliferation/viability assay (CellTiter-Glo) on MCF7 WT. The class given is cell-based. Conditions: Homo sapiens, MCF7, 168 h, 7 days of compound exposure. The procedure, abridged: as §2
A general note: In ATP-based viability assays light output follows the ATP content of the culture.

In assay [6] the test system is MCF7 cells expressing mutant estrogen receptor Tyr 537 Ser. As to the kind of experiment: Test B: cell proliferation/viability assay (CellTiter-Glo) on MCF7 Tyr 537 Ser mutant. The settings on record: Homo sapiens, MCF7, 168 h, MCF7 cells expressing ER Tyr 537 Ser mutant, 7 days of compound exposure, read-out: proliferation MCF7 Y537S IC50. The class given is cell-based. Summed up:
as §2

Where [7] appears, read: asterisk (*): protocol using 10 nM estradiol.

Chain of His6-ERα298-554 WT (ERα ligand-binding domain) (P03372 298-554): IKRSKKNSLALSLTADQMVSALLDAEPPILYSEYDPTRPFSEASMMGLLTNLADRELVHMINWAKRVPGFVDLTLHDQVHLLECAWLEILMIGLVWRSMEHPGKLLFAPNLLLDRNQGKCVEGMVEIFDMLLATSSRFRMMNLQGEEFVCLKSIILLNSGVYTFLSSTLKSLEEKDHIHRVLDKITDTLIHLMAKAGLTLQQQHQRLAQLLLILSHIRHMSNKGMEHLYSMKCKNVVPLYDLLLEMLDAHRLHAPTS
Chain of His6-ERα298-554 D538G mutant (ERα ligand-binding domain) (P03372 298-554 D538G): as the sequence (P03372 298-554) above, with D241G counted along it
Chain of His6-ERα298-554 Y537S mutant (ERα ligand-binding domain) (P03372 298-554 Y537S): as the sequence (P03372 298-554) above, with Y240S counted along it

`COCCOc1ccc(C2=C(c3ccc(O[C@H]4CCN(CCCF)C4)cc3)c3ccc(O)cc3OCC2)cc1` [Example 146, 5-[4-[(3S)-1-(3-fluoropropyl)pyrrolidin-3-yl]oxyphenyl]-4-[4-(2-methoxyethoxy)phenyl]-2,3-dihydro-1-benzoxepin-8-ol]: the IC50 came out at 51 nM in assay [1] (setting [7]); 1170 nM in assay [2] (setting [7]); 845 nM in assay [3] (setting [7]); 12 nM in assay [4]; 6 nM in assay [5]; 69 nM in assay [6]. In addition, the DC50 at ERα in MCF7 cells is 2 nM. Besides, on ERα in MCF7 cells, the “% Degradation at 3 μM” value came to 86%.
On to `Oc1ccc2c(c1)OCCC(c1ccc(OCCN3CCCC3)cc1)=C2c1ccc(O[C@H]2CCN(CCCF)C2)cc1` [Example 147, 5-[4-[(3S)-1-(3-fluoropropyl)pyrrolidin-3-yl]oxyphenyl]-4-[4-(2-pyrrolidin-1-ylethoxy)phenyl]-2,3-dihydro-1-benzoxepin-8-ol], for which the IC50 in assay [1] (setting [7]) was 390 nM; in assay [2] (setting [7]) it was over 4000 nM; in assay [3] (setting [7]) it was 3810 nM; in assay [4], 90 nM; in assay [5], 52 nM; in assay [6] it was over 999 nM. Besides, on ERα in MCF7 cells, the DC50 was found to be 49 nM. In addition, the “% Degradation at 3 μM” value on ERα in MCF7 cells stood at 77%.
Turning to `COc1c(C(=O)O)cccc1C1=C(c2ccc(O[C@H]3CCN(CCCF)C3)cc2)c2ccc(O)cc2OCC1` [Example 148, 3-[5-[4-[(3S)-1-(3-fluoropropyl)pyrrolidin-3-yl]oxyphenyl]-8-hydroxy-2,3-dihydro-1-benzoxepin-4-yl]-2-methoxy-benzoic acid], the IC50 in assay [1] (setting [7]) is over 4000 nM; in assay [2] (setting [7]), over 4000 nM; in assay [3] (setting [7]), over 4000 nM; in assay [4] it was 314 nM; in assay [5] it was 222 nM; in assay [6], over 999 nM. In addition, the DC50 at ERα in MCF7 cells was determined as 448 nM. Also, at ERα in MCF7 cells, the “% Degradation at 3 μM” value came out at 77%.
Take `Oc1ccc2c(c1)OCCC(c1ccc(OC3CC3)cc1)=C2c1ccc(O[C@H]2CCN(CCCF)C2)cc1` [Example 149, 4-[4-(cyclopropoxy)phenyl]-5-[4-[(3S)-1-(3-fluoropropyl)pyrrolidin-3-yl]oxyphenyl]-2,3-dihydro-1-benzoxepin-8-ol]: the IC50 in assay [1] (setting [7]) stood at 23 nM; in assay [2] (setting [7]), 303 nM; in assay [3] (setting [7]) it was 289 nM; in assay [4] it was 2 nM; in assay [5], 0.5 nM; in assay [6], 12 nM. Also, the DC50 on ERα in MCF7 cells is 0.9 nM. The “% Degradation at 3 μM” value on ERα in MCF7 cells was determined as 91%.
`Oc1ccc2c(c1)OCCC(c1ccc3c(c1)CCO3)=C2c1ccc(O[C@H]2CCN(CCCF)C2)cc1` [Example 151, 4-(2,3-dihydrobenzofuran-5-yl)-5-[4-[(3S)-1-(3-fluoropropyl)pyrrolidin-3-yl]oxyphenyl]-2,3-dihydro-1-benzoxepin-8-ol]: the IC50 in assay [1] (setting [7]) is 6 nM; in assay [2] (setting [7]), 88 nM; in assay [3] (setting [7]) it was 68 nM; in assay [4], 1 nM; in assay [5] it was 0.3 nM; in assay [6] it was 7 nM. Also, the DC50 on ERα in MCF7 cells was 0.4 nM. Also, the “% Degradation at 3 μM” value at ERα in MCF7 cells was determined as 90%.
Regarding `CCOc1ccc(C2=C(c3ccc(O[C@H]4CCN(CCCF)C4)cc3)c3ccc(O)cc3OCC2)c(F)c1` [Example 152, 4-(4-ethoxy-2-fluoro-phenyl)-5-[4-[(3S)-1-(3-fluoropropyl)pyrrolidin-3-yl]oxyphenyl]-2,3-dihydro-1-benzoxepin-8-ol], the IC50 in assay [1] (setting [7]) worked out at 9 nM; in assay [2] (setting [7]) it was 154 nM; in assay [3] (setting [7]) it was 107 nM; in assay [4], 3 nM; in assay [5] it was 0.5 nM; in assay [6], 4 nM. Moreover, the DC50 on ERα in MCF7 cells amounted to 0.2 nM. For the same compound, the “% Degradation at 3 μM” value at ERα in MCF7 cells is reported as 92%.
`CCOc1ccc(C2=C(c3ccc(O[C@H]4CCN(CCCF)C4)cc3)c3ccc(O)cc3OCC2)c(Cl)c1` [Example 153, 4-(2-chloro-4-ethoxy-phenyl)-5-[4-[(3S)-1-(3-fluoropropyl)pyrrolidin-3-yl]oxyphenyl]-2,3-dihydro-1-benzoxepin-8-ol]: the IC50 in assay [1] (setting [7]) was 6 nM; in assay [2] (setting [7]), 117 nM; in assay [3] (setting [7]), 86 nM; in assay [4], 0.7 nM; in assay [5] it was 0.3 nM; in assay [6], 3 nM. In addition, the DC50 at ERα in MCF7 cells came out at 0.2 nM. Also, the “% Degradation at 3 μM” value at ERα in MCF7 cells is given as 91%.
Take `COc1ccc(C2=C(c3ccc(O[C@H]4CCN(CCCF)C4)cc3)c3ccc(O)cc3OCC2)c(Cl)c1` [Example 154, 4-(2-chloro-4-methoxy-phenyl)-5-[4-[(3S)-1-(3-fluoropropyl)pyrrolidin-3-yl]oxyphenyl]-2,3-dihydro-1-benzoxepin-8-ol]: the IC50 in assay [1] (setting [7]) was found to be 5 nM; in assay [2] (setting [7]) it was 77 nM; in assay [3] (setting [7]) it was 51 nM; in assay [4], 0.6 nM; in assay [5], 0.2 nM; in assay [6], 4 nM. Further, the DC50 on ERα in MCF7 cells is 0.2 nM. Also, the “% Degradation at 3 μM” value on ERα in MCF7 cells is given as 92%.
Turning to `CCOc1ccc(C2=C(c3ccc(O[C@H]4CCN(CCCF)C4)cc3)c3cc(F)c(O)cc3OCC2)c(C)c1` [Example 155, 4-(4-ethoxy-2-methyl-phenyl)-7-fluoro-5-[4-[(3S)-1-(3-fluoropropyl)pyrrolidin-3-yl]oxyphenyl]-2,3-dihydro-1-benzoxepin-8-ol], the IC50 in assay [1] (setting [7]) is 21 nM; in assay [2] (setting [7]) it was 365 nM; in assay [3] (setting [7]), 228 nM; in assay [4], 1 nM; in assay [5], 0.4 nM; in assay [6], 6 nM. Further, the DC50 on ERα in MCF7 cells is 0.2 nM. The “% Degradation at 3 μM” value on ERα in MCF7 cells was 81%.
With `Oc1cc2c(cc1F)C(c1ccc(O[C@H]3CCN(CCCF)C3)cc1)=C(c1ccc3occc3c1)CCO2` [Example 156, 4-(benzofuran-5-yl)-7-fluoro-5-[4-[(3S)-1-(3-fluoropropyl)pyrrolidin-3-yl]oxyphenyl]-2,3-dihydro-1-benzoxepin-8-ol], the IC50 in assay [1] (setting [7]) was 19 nM; in assay [2] (setting [7]) it was 409 nM; in assay [3] (setting [7]) it was 254 nM; in assay [4], 2 nM; in assay [5], 0.6 nM; in assay [6], 14 nM. On ERα in MCF7 cells, the DC50 was found to be 0.4 nM. Moreover, the “% Degradation at 3 μM” value at ERα in MCF7 cells is 85%.
Take `COc1ccc(C2=C(c3ccc(O[C@H]4CCN(CCCF)C4)cc3)c3ccc(O)cc3OCC2)c(C)c1` [Example 157, 5-[4-[(3S)-1-(3-fluoropropyl)pyrrolidin-3-yl]oxyphenyl]-4-(4-methoxy-2-methyl-phenyl)-2,3-dihydro-1-benzoxepin-8-ol]: the IC50 in assay [1] (setting [7]) amounted to 2 nM; in assay [2] (setting [7]), 56 nM; in assay [3] (setting [7]), 36 nM; in assay [4], 0.6 nM; in assay [5], 0.2 nM; in assay [6] it was 4 nM. Also, the DC50 on ERα in MCF7 cells is 0.2 nM. Moreover, at ERα in MCF7 cells, the “% Degradation at 3 μM” value was 90%.
As for `Cc1cc(C2=C(c3ccc(O[C@H]4CCN(CCCF)C4)cc3)c3ccc(O)cc3SCC2)ccc1Cl` [Example 162, 4-(4-chloro-3-methyl-phenyl)-5-[4-[(3S)-1-(3-fluoropropyl)pyrrolidin-3-yl]oxyphenyl]-2,3-dihydro-1-benzothiepin-8-ol], the IC50 in assay [1] (protocol with 3 nM estradiol) turned out to be 4 nM; in assay [2] (protocol with 3 nM estradiol), 24 nM; in assay [3] (protocol with 3 nM estradiol), 19 nM; in assay [4], 1 nM; in assay [5] it was 0.4 nM; in assay [6], 5 nM. Besides, the DC50 at ERα in MCF7 cells was 0.8 nM. For the same compound, at ERα in MCF7 cells, the “% Degradation at 3 μM” value stood at 90%.
As for `Cc1ccc(C2=C(c3ccc(O[C@H]4CCN(CCCF)C4)cc3)c3ccc(O)cc3SCC2)c(F)c1` [Example 164, 4-(2-fluoro-4-methyl-phenyl)-5-[4-[(3S)-1-(3-fluoropropyl)pyrrolidin-3-yl]oxyphenyl]-2,3-dihydro-1-benzothiepin-8-ol], the IC50 in assay [1] (protocol with 3 nM estradiol) came to 3 nM; in assay [2] (protocol with 3 nM estradiol), 13 nM; in assay [3] (protocol with 3 nM estradiol), 9 nM; in assay [4], 0.6 nM; in assay [5], 0.6 nM; in assay [6], 5 nM. Besides, on ERα in MCF7 cells, the DC50 was determined as 0.5 nM. In addition, the “% Degradation at 3 μM” value at ERα in MCF7 cells is reported as 91%.
